Measured values taken from the supplement of paper PMC10307832.

Columns and labels:
Assay in all cases: relative viability (nuclei count vs DMSO), 5 days (fraction); higher = more cells survive
[1] = tested on: LC-2-ad
Method in brief: (§1)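 Nuclei were stained with Hoechst during a one-step fixation (final 0.05% Triton X-100, 1% formaldehyde, 1 ug/ml Hoechst) carried out 5 days after dosing, then counted on 4× images. The cells, lung cancer lines in 1536-well plates, had been dosed by pin tool the day after seeding with one drug alone or a fixed anchor-drug dose plus five library-drug doses (not always all listed) in √10 steps. Relative viability is the nuclei count in treated wells divided by that in vehicle wells, and each value is the median of duplicate plates.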

[2] = tested on: BEN
Method in brief: as §1

[3] = tested on: H3255
Method in brief: as §1

[4] = tested on: A-427
Method in brief: as §1

[5] = tested on: NCI-H1650
Method in brief: as §1

[6] = tested on: NCI-H520
Method in brief: as §1

[7] = tested on: PC-3 [JPC-3]
Method in brief: as §1

[8] = tested on: NCI-H441
Method in brief: as §1

[9] = tested on: NCI-H650
Method in brief: as §1

[10] = tested on: NCI-H460
Method in brief: as §1

[11] = tested on: ABC-1
Method in brief: as §1

[12] = tested on: NCI-H2087
Method in brief: as §1

[13] = tested on: LCLC-97TM1
Method in brief: as §1

[14] = tested on: NCI-H2023
Method in brief: as §1

[15] = tested on: NCI-H1944
Method in brief: as §1

[16] = tested on: NCI-H596
Method in brief: as §1

[17] = tested on: NCI-H1651
Method in brief: as §1

[18] = tested on: 201T
Method in brief: as §1

[19] = tested on: NCI-H661
Method in brief: as §1

[20] = tested on: NCI-H1915
Method in brief: as §1

[21] = tested on: NCI-H727
Method in brief: as §1

`Nc1ccn([C@@H]2O[C@H](CO)[C@@H](O)[C@@H]2O)c(=O)n1` [Cytarabine] + Nc1ncn([C@H]2C[C@H](O)[C@@H](CO)O2)c(=O)n1 [Decitabine] (partner 2 µM) was tested, and the relative viability ([1]; first compound 0.005 µM) was 0.727, the relative viability ([1]; first compound 0.01581 µM) was 0.682 and the relative viability ([1]; first compound 0.05 µM) was 0.759. It also gave a relative viability ([1]; first compound 0.1581 µM) of 0.69, a relative viability ([1]; first compound 0.5 µM) of 0.499 and a relative viability ([2]; first compound 0.005 µM) of 0.675. The relative viability ([2]; first compound 0.01581 µM) was 0.558, the relative viability ([2]; first compound 0.05 µM) was 0.43 and the relative viability ([2]; first compound 0.1581 µM) was 0.345. It also gave a relative viability ([2]; first compound 0.5 µM) of 0.31, a relative viability ([3]; first compound 0.005 µM) of 0.732 and a relative viability ([3]; first compound 0.01581 µM) of 0.555. The relative viability ([3]; first compound 0.05 µM) was 0.637, the relative viability ([3]; first compound 0.1581 µM) was 0.588 and the relative viability ([3]; first compound 0.5 µM) was 0.375. It also gave a relative viability ([4]; first compound 0.005 µM) of 0.475, a relative viability ([4]; first compound 0.01581 µM) of 0.421 and a relative viability ([4]; first compound 0.05 µM) of 0.361. For the same compound, the relative viability ([4]; first compound 0.1581 µM) was 0.259, the relative viability ([4]; first compound 0.5 µM) was 0.263 and the relative viability ([5]; first compound 0.005 µM) was 0.294. For the same compound, the relative viability ([5]; first compound 0.01581 µM) was 0.286, the relative viability ([5]; first compound 0.05 µM) was 0.276 and the relative viability ([5]; first compound 0.1581 µM) was 0.17. For the same compound, the relative viability ([5]; first compound 0.5 µM) was 0.172, the relative viability ([6]; first compound 0.005 µM) was 0.48 and the relative viability ([6]; first compound 0.01581 µM) was 0.564. It also gave a relative viability ([6]; first compound 0.05 µM) of 0.53, a relative viability ([6]; first compound 0.1581 µM) of 0.343 and a relative viability ([6]; first compound 0.5 µM) of 0.349. The relative viability ([7]; first compound 0.005 µM) was 0.824, the relative viability ([7]; first compound 0.01581 µM) was 0.763 and the relative viability ([7]; first compound 0.05 µM) was 0.581. For the same compound, the relative viability ([7]; first compound 0.1581 µM) was 0.468, the relative viability ([7]; first compound 0.5 µM) was 0.507 and the relative viability ([8]; first compound 0.005 µM) was 0.289. It also gave a relative viability ([8]; first compound 0.01581 µM) of 0.186, a relative viability ([8]; first compound 0.05 µM) of 0.268 and a relative viability ([8]; first compound 0.1581 µM) of 0.182. The relative viability ([8]; first compound 0.5 µM) was 0.153, the relative viability ([9]; first compound 0.005 µM) was 0.326 and the relative viability ([9]; first compound 0.01581 µM) was 0.255. It also gave a relative viability ([9]; first compound 0.05 µM) of 0.247, a relative viability ([9]; first compound 0.1581 µM) of 0.152 and a relative viability ([9]; first compound 0.5 µM) of 0.152. For the same compound, the relative viability ([10]; first compound 0.005 µM) was 0.451, the relative viability ([10]; first compound 0.01581 µM) was 0.406 and the relative viability ([10]; first compound 0.05 µM) was 0.336. The relative viability ([10]; first compound 0.1581 µM) was 0.0621, the relative viability ([10]; first compound 0.5 µM) was 0.0458 and the relative viability ([11]; first compound 0.005 µM) was 1.13. It also gave a relative viability ([11]; first compound 0.01581 µM) of 1.02, a relative viability ([11]; first compound 0.05 µM) of 0.925 and a relative viability ([11]; first compound 0.1581 µM) of 0.786. For the same compound, the relative viability ([11]; first compound 0.5 µM) was 0.611, the relative viability ([12]; first compound 0.005 µM) was 0.316 and the relative viability ([12]; first compound 0.01581 µM) was 0.225. The relative viability ([12]; first compound 0.05 µM) was 0.303, the relative viability ([12]; first compound 0.1581 µM) was 0.109 and the relative viability ([12]; first compound 0.5 µM) was 0.133. The relative viability ([13]; first compound 0.005 µM) was 0.205, the relative viability ([13]; first compound 0.01581 µM) was 0.164 and the relative viability ([13]; first compound 0.05 µM) was 0.211. The relative viability ([13]; first compound 0.1581 µM) was 0.127, the relative viability ([13]; first compound 0.5 µM) was 0.111 and the relative viability ([14]; first compound 0.005 µM) was 0.169. It also gave a relative viability ([14]; first compound 0.01581 µM) of 0.116, a relative viability ([14]; first compound 0.05 µM) of 0.114 and a relative viability ([14]; first compound 0.1581 µM) of 0.0751. For the same compound, the relative viability ([14]; first compound 0.5 µM) was 0.0656, the relative viability ([15]; first compound 0.005 µM) was 0.335 and the relative viability ([15]; first compound 0.01581 µM) was 0.347. It also gave a relative viability ([15]; first compound 0.05 µM) of 0.319, a relative viability ([15]; first compound 0.1581 µM) of 0.194 and a relative viability ([15]; first compound 0.5 µM) of 0.151. It also gave a relative viability ([16]; first compound 0.005 µM) of 0.858, a relative viability ([16]; first compound 0.01581 µM) of 0.916 and a relative viability ([16]; first compound 0.05 µM) of 0.658. The relative viability ([16]; first compound 0.1581 µM) was 0.581, the relative viability ([16]; first compound 0.5 µM) was 0.767 and the relative viability ([17]; first compound 0.005 µM) was 0.646. For the same compound, the relative viability ([17]; first compound 0.01581 µM) was 0.493, the relative viability ([17]; first compound 0.05 µM) was 0.167 and the relative viability ([17]; first compound 0.1581 µM) was 0.281. For the same compound, the relative viability ([17]; first compound 0.5 µM) was 0.213, the relative viability ([18]; first compound 0.005 µM) was 0.847 and the relative viability ([18]; first compound 0.01581 µM) was 0.853. It also gave a relative viability ([18]; first compound 0.05 µM) of 0.802, a relative viability ([18]; first compound 0.1581 µM) of 0.72 and a relative viability ([18]; first compound 0.5 µM) of 0.668. The relative viability ([19]; first compound 0.005 µM) was 0.556, the relative viability ([19]; first compound 0.01581 µM) was 0.509 and the relative viability ([19]; first compound 0.05 µM) was 0.519. The relative viability ([19]; first compound 0.1581 µM) was 0.422, the relative viability ([19]; first compound 0.5 µM) was 0.295 and the relative viability ([20]; first compound 0.005 µM) was 0.248. For the same compound, the relative viability ([20]; first compound 0.01581 µM) was 0.289, the relative viability ([20]; first compound 0.05 µM) was 0.269 and the relative viability ([20]; first compound 0.1581 µM) was 0.231. It also gave a relative viability ([20]; first compound 0.5 µM) of 0.227, a relative viability ([21]; first compound 0.005 µM) of 0.964 and a relative viability ([21]; first compound 0.01581 µM) of 0.713. For the same compound, the relative viability ([21]; first compound 0.05 µM) was 0.443, the relative viability ([21]; first compound 0.1581 µM) was 0.474 and the relative viability ([21]; first compound 0.5 µM) was 0.522.
